Measurements taken from US7563913B2, “Compound and pharmaceutical composition” (Hiro International Co., Ltd., priority 2003, dated 2009).
Converted amounts (≈) assume the structure as drawn.

Key:
[1] = system: human acute myeloid leukemia cell strain HL-60; experiment: Cytotoxic activity, MTT test on HL-60 cells; assay type: cell-based; conditions: 72 hr incubation; for IC50: Homo sapiens
Method: Cytostatic activity of TD-1 to 10 was studied in terms of numerical values of cytotoxic activity using human acute myeloid leukemia cell strain HL-60. The test was specifically carried out according to the following procedure.
HL-60 cells precultured in an FBS-containing RPMI 1640 medium were suspended in an FBS-containing RPMI 1640 medium so that the number of HL-60 cells is 4×10^4 per mL. The suspension was dispensed in an amount of […] for each well in a 96-well microplate, followed by preincubation in 5% carbon dioxide gas at 37° C. for 24 hr. Subsequently, EtOH-H2O(1:1) as control, and a solution of each TD compound in EtOH-H2O(1:1) as a sample were added each in an amount of […] to each well. After incubation in 5% carbon dioxide gas at 37° C. for 72 hr, an MTT reagent was added in an amount of […] to each well, and incubation was further carried out for 4 hr. The medium was removed, and MTT formazan thus produced was then dissolved in […] of DMSO. Detection was carried out at a light absorption wavelength of 550 nm with a microplate reader, and the viable cell count based on the control was calculated. IC50 values were calculated from a dose-response curve.

[2] = system: 39 types in total of human tumor cells; experiment: Human cultured cancer cell panel screening test, average over panel; assay type: cell-based; conditions: 50% cell growth inhibitory concentration, average over 39 human tumor cell types
Method: (§1) To examine the cytostatic activity of TD-1, a human cultured cancer cell panel screening test was carried out. Specifically, for TD-1, the human cultured cancer cell panel screening test was carried out by measuring 50% cell growth inhibitory concentration (GI50) against 39 types in total of human tumor cells according to the method described in “Gan To Kagaku Ryoho (Cancer and Chemotherapy) (Takao Yamori), 24, 129-135, 1997”.

[3] = system: OVCAR-3 ovarian cancer cell line; experiment: Human cultured cancer cell panel screening test, OVCAR-3; assay type: cell-based
Method: as §1

[4] = system: OVCAR-4 ovarian cancer cell line; experiment: Human cultured cancer cell panel screening test, OVCAR-4; assay type: cell-based
Method: as §1

[5] = system: OVCAR-5 ovarian cancer cell line; experiment: Human cultured cancer cell panel screening test, OVCAR-5; assay type: cell-based
Method: as §1

[6] = system: OVCAR-8 ovarian cancer cell line; experiment: Human cultured cancer cell panel screening test, OVCAR-8; assay type: cell-based
Method: as §1

[7] = system: SK-OV-3 ovarian cancer cell line; experiment: Human cultured cancer cell panel screening test, SK-OV-3; assay type: cell-based
Method: as §1

[8] = system: DU-145 prostatic cancer cell line; experiment: Human cultured cancer cell panel screening test, DU-145; assay type: cell-based
Method: as §1

[9] = system: PC-3 prostatic cancer cell line; experiment: Human cultured cancer cell panel screening test, PC-3; assay type: cell-based
Method: as §1

P388 mouse leukemia = conditions: mice with P388 mouse leukemia intraperitoneally transplanted; Pal et al. 1976; cited from earlier work

Compound: C=C1C(=O)O[C@@H]2C[C@H](C)[C@@]3(OC)CC[C@@](C)(C[C@@H](OC(=O)C(C)C)[C@@H]12)O3 [TD-10, (3R,4S,6R,7S,8R,10S)-3-methoxy-3,10-epoxy-8-isobutyryloxygermacra-11(13)-en-6,12-olide]
- IC50 value [1]: (0.78) μg/mL

Compound: C=C1C(=O)OC2/C=C(/C)C(=O)/C=C/C(C)(O)CC(OC(=O)C(C)C)C12 [TD-2, (6S,7R,8R,10R)-10-hydroxy-3-oxo-8-isobutyryloxygermacra-1,4,11(13)-trien-6,12-olide]
- IC50 [1]: 0.38 µg/mL (≈ 1.09 µM)

Compound: C=C1C(=O)O[C@@H]2C[C@H](C)[C@@]3(O)C[C@H](O)[C@@](C)(C[C@@H](OC(=O)C(C)C)[C@@H]12)O3 [TD-7, (1S,3R,4S,6R,7S,8R,10R)-1,3-dihydroxy-3,10-epoxy-8-isobutyryloxygermacra-11(13)-en-6,12-olide]
- IC50 value [1]: (3.87) μg/mL

Compound: C=C1C(=O)O[C@@H]2C=C(C)[C@@]3(OC)C[C@@H](OC)[C@@](C)(C[C@@H](OC(=O)C(C)C)[C@@H]12)O3 [TD-1, (1R,3R,6R,7R,8R,10R)-1,3-dimethoxy-3,10-epoxy-8-isobutyryloxygermacra-4,11(13)-dien-6,12-olide]
- IC50 value [1]: (0.60) μg/mL
- GI50 [2]: 6.8 µM
- GI50 [3]: 3.3 µM
- GI50 [4]: 5.6 µM
- GI50 [5]: 2.9 µM
- GI50 [6]: 3.6 µM
- GI50 [7]: 4 µM
- GI50 [8]: 4.2 µM
- GI50 [9]: 3.3 µM

Compound: C=C1C(=O)OC2/C=C(/C)C(O)CC3OC3(C)CC(OC(=O)C(C)C)C12 [TD-8, (1R,3S,6S,7R,8R,10R)-3-hydroxy-1,10-epoxy-8-isobutyrylgermacra-4,11(13)-dien-6,12-olide]
- IC50 [1]: 0.92 µg/mL (≈ 2.63 µM)

Compound: C=C1C(=O)O[C@@H]2C=C(C)[C@@]3(OC)C[C@H](O)[C@@](C)(C[C@@H](OC(=O)C(C)C)[C@@H]12)O3 [TD-6, (1 S,3R,6R,7R, 8R,10R)-1-hydroxy-3-methoxy-3,10-epoxy-8-isobutyryloxygermacra-4,11(13)-dien-6,12-olide]
- IC50 value [1]: (2.50) μg/mL

Compound: C=C1C(=O)O[C@@H]2C[C@H](C)[C@@]3(O)CC[C@@](C)(C[C@@H](OC(=O)C(C)C)[C@@H]12)O3 [TD-9, (3R,4S,6R,7S,8R,10S)-3-hydroxy-3,10-epoxy-8-isobutyryloxygermacra-11 (13)-en-6,12-olide]
- IC50 value [1]: (2.50) μg/mL

Compound: C=C1C(=O)O[C@H]2/C=C(/C)[C@@]3(O)C=C[C@@](C)(C[C@@H](OC(=O)C(C)C)[C@@H]12)O3 [TD-11, (3R,6R,7R,8R,10R)-3-hydroxy-3,10-epoxy-8-isobutyryloxygermacra-1,4,11(13)-trien-6,12-olide]
- effect of prolonging the life span of mice (P388 mouse leukemia): had the effect of prolonging the life span of mice

Compound: C=C1C(=O)O[C@@H]2C[C@H](C)[C@@]3(OC)C[C@H](O)[C@@](C)(C[C@@H](OC(=O)C(C)C)[C@@H]12)O3 [TD-3, (1S,3R,4S,6R,7S,8R,10R)-1-hydroxy-3-methoxy-3,10-epoxy-8-isobutyryloxygermacra-11(13)-en-6,12-olide]
- IC50 value [1]: (4.97) μg/mL

Compound: C=C1C(=O)O[C@@H]2C=C(C)[C@@]3(O)C[C@@H](OC)[C@@](C)(C[C@@H](OC(=O)C(C)C)[C@@H]12)O3 [TD-4, (1R,3R,6R,7R,8R,10R)-3-hydroxy-1-methoxy-3,10-epoxy-8-isobutyryloxygermacra-4,11(13)-dien-6,12-olide]
- IC50 value [1]: (0.05) μg/mL
